Experimental data as given in patent US20070043084A1, “1,2-Diarylimidazoles useful as inhibitors of cox” (Astellas Pharma Inc., priority 2003, published 2007).

Experiments:
COX-II = molecular target: T1, COX-II (Homo sapiens, UniProt P35354); assay: Whole blood assay for COX-II (LPS-induced PGE2 production); type: cell-based; settings: lipopolysaccharide 24 hrs at 37° C.
T1 construct: lipopolysaccharide for 24 hrs at 37° C. for induction of COX-II; from tissue; host or cells: fresh heparinized human whole blood from volunteers, stimulated with LPS for 24 hrs
T1 sequence (P35354 18-604): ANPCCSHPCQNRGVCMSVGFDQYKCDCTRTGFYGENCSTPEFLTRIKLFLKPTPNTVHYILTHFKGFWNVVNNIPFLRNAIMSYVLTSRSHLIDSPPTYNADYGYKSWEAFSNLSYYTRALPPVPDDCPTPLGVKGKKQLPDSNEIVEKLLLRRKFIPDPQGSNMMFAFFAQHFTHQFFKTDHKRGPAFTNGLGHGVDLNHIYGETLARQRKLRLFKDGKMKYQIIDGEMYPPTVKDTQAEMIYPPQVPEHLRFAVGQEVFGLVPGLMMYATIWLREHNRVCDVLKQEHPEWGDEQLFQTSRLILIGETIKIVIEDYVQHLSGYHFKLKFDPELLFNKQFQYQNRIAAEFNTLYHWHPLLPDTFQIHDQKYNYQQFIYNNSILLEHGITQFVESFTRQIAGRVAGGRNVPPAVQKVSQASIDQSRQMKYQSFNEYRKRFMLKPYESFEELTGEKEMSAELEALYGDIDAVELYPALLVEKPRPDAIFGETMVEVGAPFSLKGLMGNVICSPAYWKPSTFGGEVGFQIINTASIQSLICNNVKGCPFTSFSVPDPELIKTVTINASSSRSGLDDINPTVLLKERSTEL
Procedure: Whole Blood Assay for COX-II
Fresh blood was collected in heparinized tubes by syringe from volunteers with consent. The subjects had no apparent inflammatory conditions and had not taken any medication for at least 7 days prior to blood collection.
500 μl aliquots of human whole blood were incubated with either 2 μl dimethyl sulfoxide vehicle or 2 μl of a test compound at final concentrations for 15 min at 37° C. This was followed by incubation of the blood with […] of 5 mg/ml lipopolysaccharide for 24 hrs at 37° C. for induction of COX-II. Appropriate PBS treatments (no LPS) were used as blanks. At the end of the incubation, the blood was centrifuged at 6000×g for 5 min at 4° C. to obtain plasma. A 100 μl aliquot of plasma was mixed with 400 μl methanol for protein precipitation. The supernatant was obtained by centrifuging at 6000×g for 5 min at 4° C. and was assayed for prostaglandin E2 (PGE2) using a radioimmunoassay kit after conversion of PGE2 to its methyl oximate derivative according to the manufacturer's procedure.
For a test compound, the results were expressed as percent inhibition of […] production relative to control incubations containing dimethyl sulfoxide vehicle. The data were analyzed by that a test compound at the indicated concentrations was changed log value and was applied simple linear regression. IC50 value was calculated by least squares method.

COX-I = molecular target: T2, COX-I (Homo sapiens, UniProt P23219); assay: Whole blood assay for COX-I (TXB2 production); type: cell-based; settings: 1 hr at 37° C.
T2 construct: Fresh blood was collected by syringe without anticoagulants from volunteers with consent; from tissue; host or cells: fresh human whole blood from volunteers, no anticoagulant, left to clot
Procedure: [B] Inhibiting Activity Against COX-I and COX-II (Whole Blood Assay): (i) Test Method: Whole Blood Assay for COX-I
Fresh blood was collected by syringe without anticoagulants from volunteers with consent. The subjects had no apparent inflammatory conditions and had not taken any medication for at least 7 days prior to blood collection.
500 μl aliquots of human whole blood were immediately incubated with 2 μl of either dimethyl sulfoxide vehicle or a test compound at final concentrations for 1 hr at 37° C. to allow the blood to clot. Appropriate treatments (no incubation) were used as blanks. At the end of the incubation, 5 μl of 250 mM Indomethacin was added to stop the reaction. The blood was centrifuged at 6000×g for 5 min at 4° C. to obtain serum. A 100 μl aliquot of serum was mixed with 400 μl methanol for protein precipitation. The supernatant was obtained by centrifuging at 6000×g for 5 min at 4° C. and was assayed for TXB2 using an enzyme immunoassay kit according to the manufacturer's procedure. For a test compound, the results were expressed as percent inhibition of thromboxane B2(TXB2) production relative to control incubations containing dimethyl sulfoxide vehicle.
The data were analyzed by that a test compound at the indicated concentrations was changed log value and was applied simple linear regression. IC50 value was calculated by least squares method.

[1] = tested on: adjuvant arthritis in rats; assay: Analgesic activity: effect on adjuvant arthritis in rats (Randall-Selitto pain threshold); type: in vivo, Lewis rats; settings: dose 3.2 mg/kg; ratio of threshold pressure of treated vs non-treated arthritic rats, 2 hrs after administration; ratio of 1.5 = effective dose

T2 sequence (P23219 24-599): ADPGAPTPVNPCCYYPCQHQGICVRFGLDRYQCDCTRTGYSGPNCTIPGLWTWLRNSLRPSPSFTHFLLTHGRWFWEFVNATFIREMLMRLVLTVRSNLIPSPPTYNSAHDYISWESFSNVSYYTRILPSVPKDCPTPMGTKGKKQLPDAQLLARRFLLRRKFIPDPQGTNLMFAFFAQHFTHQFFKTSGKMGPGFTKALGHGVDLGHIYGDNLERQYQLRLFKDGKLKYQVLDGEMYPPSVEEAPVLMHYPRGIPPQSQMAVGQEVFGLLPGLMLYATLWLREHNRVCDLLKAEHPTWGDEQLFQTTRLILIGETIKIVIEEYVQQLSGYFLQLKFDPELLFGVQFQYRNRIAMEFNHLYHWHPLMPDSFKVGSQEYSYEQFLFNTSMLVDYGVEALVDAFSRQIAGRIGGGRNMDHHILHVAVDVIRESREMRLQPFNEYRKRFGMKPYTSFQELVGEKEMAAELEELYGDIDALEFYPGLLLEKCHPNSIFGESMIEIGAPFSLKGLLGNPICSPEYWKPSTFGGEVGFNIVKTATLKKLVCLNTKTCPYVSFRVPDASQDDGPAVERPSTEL

Row | IC50 (COX-II) [nM] | IC50 (COX-I) [nM] | melting point [°C] | SMILES | The coefficient of analgesic [1]
1 | ≥ 100 | < 10 | 146 to 148 | COc1ccc(-c2nc(C(F)(F)F)cn2-c2ccc(C#N)cc2)cc1 [Example 24, 1-(4-Cyanophenyl)-2-(4-methoxyphenyl)-4-trifluoromethyl-1H-imidazole] | >1.5
2 | ≥ 100 | < 10 | 106 to 107 | COc1ccc(-n2cc(C(F)F)nc2-c2ccc(OC)nc2)cc1 [Example 43, 4-Difluoromethyl-1-(4-methoxyphenyl)-2-(2-methoxy-5-pyridinyl)-1H-imidazole] | >1.5
3 | ≥ 100 | < 10 | 90 to 92 | COc1ccc(-n2cc(C(F)(F)F)nc2-c2ccc(OC)nc2)cc1 [Example 3-2, 1-(4-Methoxyphenyl)-2-(2-methoxy-5-pyridinyl)-4-trifluoromethyl-1H-imidazole] | >1.5
